How the values were obtained:
Assay in all cases: Eurofins kinase panel
Format in all cases: biochemical
PI3 Kinase (p120γ)(h) = target: T1, PI3 Kinase (p120γ)(h) (Homo sapiens, UniProt P48736); details: read-out: Inhibition rate (%)
T1 construct: purchased Eurofins (KinaseProfiler)
Experimental: (§1) Active FGFR1–4, VEGFR1, KDR, VEGFR3, PDGFRα and PDGFRβ proteins were purchased from Eurofins (Fremont, United States), and kinase activity was assessed using ELISA, as previously reported. […]. Increasing concentrations of ATP were diluted for the kinase reaction in the ATP competition assay. CSF-1R kinase activity was analyzed using the Z’-LYTE™ Kinase Assay Kit (Thermo Fisher, United States). The assay formats are described in the SelectScreen Kinase Profiling Service Zlyte protocol. IC50 values were calculated by dose-response curve fitting using Prism (Graph Pad).

CDK18/cyclinY(h) = target: T2, CDK18/cyclinY(h) (Homo sapiens, UniProt Q07002); details: read-out: Inhibition rate (%)
T2 construct: purchased Eurofins (KinaseProfiler)
Experimental: as §1

ATM(h) = target: T3, ATM(h) (Homo sapiens, UniProt Q13315); details: read-out: Inhibition rate (%)
T3 construct: purchased Eurofins (KinaseProfiler)
Experimental: as §1

PKAcβ(h) = target: T4, PKAcβ(h) (Homo sapiens, UniProt P22694); details: read-out: Inhibition rate (%)
T4 construct: purchased Eurofins (KinaseProfiler)
Experimental: as §1

CK1δ(h) = target: T5, CK1δ(h) (Homo sapiens, UniProt P48730); details: read-out: Inhibition rate (%)
T5 construct: purchased Eurofins (KinaseProfiler)
Experimental: as §1

cKit(D816V)(h) = target: T6, cKit(D816V)(h) (Homo sapiens, UniProt P10721, D816V); details: read-out: Inhibition rate (%)
T6 construct: purchased Eurofins (KinaseProfiler)
Experimental: as §1

CK1(y) = system: CK1(y)
Experimental: as §1

TGFBR1(h) = target: T7, TGFBR1(h) (Homo sapiens, UniProt P36897); details: read-out: Inhibition rate (%)
T7 construct: purchased Eurofins (KinaseProfiler)
T7 sequence (P36897 34-503): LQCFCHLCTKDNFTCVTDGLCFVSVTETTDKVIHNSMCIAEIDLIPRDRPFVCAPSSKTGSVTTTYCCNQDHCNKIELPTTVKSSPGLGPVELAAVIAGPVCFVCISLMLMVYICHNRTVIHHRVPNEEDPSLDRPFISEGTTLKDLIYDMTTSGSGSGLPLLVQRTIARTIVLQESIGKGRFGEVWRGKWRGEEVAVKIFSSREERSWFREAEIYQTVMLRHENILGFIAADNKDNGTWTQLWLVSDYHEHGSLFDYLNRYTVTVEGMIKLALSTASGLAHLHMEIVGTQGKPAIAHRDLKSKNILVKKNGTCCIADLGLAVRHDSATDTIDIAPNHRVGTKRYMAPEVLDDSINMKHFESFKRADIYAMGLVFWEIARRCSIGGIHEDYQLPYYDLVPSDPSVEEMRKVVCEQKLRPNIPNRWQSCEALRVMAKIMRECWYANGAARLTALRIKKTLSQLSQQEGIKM
Experimental: as §1

MST1(h) = target: T8, MST1(h) (Homo sapiens, UniProt Q13043); details: read-out: Inhibition rate (%)
T8 construct: purchased Eurofins (KinaseProfiler)
T8 sequence (Q13043 1-487): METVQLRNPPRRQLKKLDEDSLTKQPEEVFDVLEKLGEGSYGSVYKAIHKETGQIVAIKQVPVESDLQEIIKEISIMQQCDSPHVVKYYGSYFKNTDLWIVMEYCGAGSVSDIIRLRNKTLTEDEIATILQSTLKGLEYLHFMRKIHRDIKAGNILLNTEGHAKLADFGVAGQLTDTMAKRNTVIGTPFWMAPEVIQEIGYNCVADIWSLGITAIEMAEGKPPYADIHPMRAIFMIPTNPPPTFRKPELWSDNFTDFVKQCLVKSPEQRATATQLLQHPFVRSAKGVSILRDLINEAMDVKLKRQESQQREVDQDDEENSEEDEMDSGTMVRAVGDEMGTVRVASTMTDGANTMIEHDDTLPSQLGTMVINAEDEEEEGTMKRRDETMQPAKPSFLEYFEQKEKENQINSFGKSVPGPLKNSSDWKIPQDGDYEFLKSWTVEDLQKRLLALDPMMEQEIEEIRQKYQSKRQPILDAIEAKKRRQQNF
Experimental: as §1

DYRK2(h) = target: T9, DYRK2(h) (Homo sapiens, UniProt Q92630); details: read-out: Inhibition rate (%)
T9 construct: purchased Eurofins (KinaseProfiler)
T9 sequence (Q92630 1-601): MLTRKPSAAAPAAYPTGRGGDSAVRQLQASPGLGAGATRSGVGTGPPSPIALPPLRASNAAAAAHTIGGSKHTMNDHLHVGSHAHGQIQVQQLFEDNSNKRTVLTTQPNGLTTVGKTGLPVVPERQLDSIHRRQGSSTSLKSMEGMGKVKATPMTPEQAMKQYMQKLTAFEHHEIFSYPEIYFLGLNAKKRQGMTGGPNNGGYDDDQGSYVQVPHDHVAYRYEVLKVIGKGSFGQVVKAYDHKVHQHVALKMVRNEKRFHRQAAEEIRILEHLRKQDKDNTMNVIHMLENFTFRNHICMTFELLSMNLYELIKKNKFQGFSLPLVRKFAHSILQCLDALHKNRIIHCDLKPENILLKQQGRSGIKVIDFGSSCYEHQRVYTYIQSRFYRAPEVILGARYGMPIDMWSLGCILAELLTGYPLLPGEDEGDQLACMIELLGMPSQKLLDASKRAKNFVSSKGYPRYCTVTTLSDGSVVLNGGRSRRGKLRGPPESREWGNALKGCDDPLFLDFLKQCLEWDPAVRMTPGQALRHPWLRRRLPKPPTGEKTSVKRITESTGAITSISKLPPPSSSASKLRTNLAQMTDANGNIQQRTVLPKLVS
Experimental: as §1

IRAK1(h) = target: T10, IRAK1(h) (Homo sapiens, UniProt P51617); details: read-out: Inhibition rate (%)
T10 construct: purchased Eurofins (KinaseProfiler)
Experimental: as §1

STK25(h) = target: T11, STK25(h) (Homo sapiens, UniProt O00506); details: read-out: Inhibition rate (%)
T11 construct: purchased Eurofins (KinaseProfiler)
T11 sequence (O00506 whole entry): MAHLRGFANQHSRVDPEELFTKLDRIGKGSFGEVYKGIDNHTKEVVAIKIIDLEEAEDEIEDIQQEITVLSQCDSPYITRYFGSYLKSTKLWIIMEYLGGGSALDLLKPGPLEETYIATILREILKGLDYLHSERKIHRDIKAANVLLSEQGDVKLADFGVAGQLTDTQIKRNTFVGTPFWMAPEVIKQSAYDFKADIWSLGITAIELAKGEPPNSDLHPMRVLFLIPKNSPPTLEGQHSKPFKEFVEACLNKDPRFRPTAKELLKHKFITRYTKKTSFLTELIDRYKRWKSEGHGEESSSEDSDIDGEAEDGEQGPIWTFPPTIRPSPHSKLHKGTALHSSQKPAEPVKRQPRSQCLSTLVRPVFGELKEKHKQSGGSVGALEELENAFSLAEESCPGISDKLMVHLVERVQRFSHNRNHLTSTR

T3 sequence (Q13315 whole entry): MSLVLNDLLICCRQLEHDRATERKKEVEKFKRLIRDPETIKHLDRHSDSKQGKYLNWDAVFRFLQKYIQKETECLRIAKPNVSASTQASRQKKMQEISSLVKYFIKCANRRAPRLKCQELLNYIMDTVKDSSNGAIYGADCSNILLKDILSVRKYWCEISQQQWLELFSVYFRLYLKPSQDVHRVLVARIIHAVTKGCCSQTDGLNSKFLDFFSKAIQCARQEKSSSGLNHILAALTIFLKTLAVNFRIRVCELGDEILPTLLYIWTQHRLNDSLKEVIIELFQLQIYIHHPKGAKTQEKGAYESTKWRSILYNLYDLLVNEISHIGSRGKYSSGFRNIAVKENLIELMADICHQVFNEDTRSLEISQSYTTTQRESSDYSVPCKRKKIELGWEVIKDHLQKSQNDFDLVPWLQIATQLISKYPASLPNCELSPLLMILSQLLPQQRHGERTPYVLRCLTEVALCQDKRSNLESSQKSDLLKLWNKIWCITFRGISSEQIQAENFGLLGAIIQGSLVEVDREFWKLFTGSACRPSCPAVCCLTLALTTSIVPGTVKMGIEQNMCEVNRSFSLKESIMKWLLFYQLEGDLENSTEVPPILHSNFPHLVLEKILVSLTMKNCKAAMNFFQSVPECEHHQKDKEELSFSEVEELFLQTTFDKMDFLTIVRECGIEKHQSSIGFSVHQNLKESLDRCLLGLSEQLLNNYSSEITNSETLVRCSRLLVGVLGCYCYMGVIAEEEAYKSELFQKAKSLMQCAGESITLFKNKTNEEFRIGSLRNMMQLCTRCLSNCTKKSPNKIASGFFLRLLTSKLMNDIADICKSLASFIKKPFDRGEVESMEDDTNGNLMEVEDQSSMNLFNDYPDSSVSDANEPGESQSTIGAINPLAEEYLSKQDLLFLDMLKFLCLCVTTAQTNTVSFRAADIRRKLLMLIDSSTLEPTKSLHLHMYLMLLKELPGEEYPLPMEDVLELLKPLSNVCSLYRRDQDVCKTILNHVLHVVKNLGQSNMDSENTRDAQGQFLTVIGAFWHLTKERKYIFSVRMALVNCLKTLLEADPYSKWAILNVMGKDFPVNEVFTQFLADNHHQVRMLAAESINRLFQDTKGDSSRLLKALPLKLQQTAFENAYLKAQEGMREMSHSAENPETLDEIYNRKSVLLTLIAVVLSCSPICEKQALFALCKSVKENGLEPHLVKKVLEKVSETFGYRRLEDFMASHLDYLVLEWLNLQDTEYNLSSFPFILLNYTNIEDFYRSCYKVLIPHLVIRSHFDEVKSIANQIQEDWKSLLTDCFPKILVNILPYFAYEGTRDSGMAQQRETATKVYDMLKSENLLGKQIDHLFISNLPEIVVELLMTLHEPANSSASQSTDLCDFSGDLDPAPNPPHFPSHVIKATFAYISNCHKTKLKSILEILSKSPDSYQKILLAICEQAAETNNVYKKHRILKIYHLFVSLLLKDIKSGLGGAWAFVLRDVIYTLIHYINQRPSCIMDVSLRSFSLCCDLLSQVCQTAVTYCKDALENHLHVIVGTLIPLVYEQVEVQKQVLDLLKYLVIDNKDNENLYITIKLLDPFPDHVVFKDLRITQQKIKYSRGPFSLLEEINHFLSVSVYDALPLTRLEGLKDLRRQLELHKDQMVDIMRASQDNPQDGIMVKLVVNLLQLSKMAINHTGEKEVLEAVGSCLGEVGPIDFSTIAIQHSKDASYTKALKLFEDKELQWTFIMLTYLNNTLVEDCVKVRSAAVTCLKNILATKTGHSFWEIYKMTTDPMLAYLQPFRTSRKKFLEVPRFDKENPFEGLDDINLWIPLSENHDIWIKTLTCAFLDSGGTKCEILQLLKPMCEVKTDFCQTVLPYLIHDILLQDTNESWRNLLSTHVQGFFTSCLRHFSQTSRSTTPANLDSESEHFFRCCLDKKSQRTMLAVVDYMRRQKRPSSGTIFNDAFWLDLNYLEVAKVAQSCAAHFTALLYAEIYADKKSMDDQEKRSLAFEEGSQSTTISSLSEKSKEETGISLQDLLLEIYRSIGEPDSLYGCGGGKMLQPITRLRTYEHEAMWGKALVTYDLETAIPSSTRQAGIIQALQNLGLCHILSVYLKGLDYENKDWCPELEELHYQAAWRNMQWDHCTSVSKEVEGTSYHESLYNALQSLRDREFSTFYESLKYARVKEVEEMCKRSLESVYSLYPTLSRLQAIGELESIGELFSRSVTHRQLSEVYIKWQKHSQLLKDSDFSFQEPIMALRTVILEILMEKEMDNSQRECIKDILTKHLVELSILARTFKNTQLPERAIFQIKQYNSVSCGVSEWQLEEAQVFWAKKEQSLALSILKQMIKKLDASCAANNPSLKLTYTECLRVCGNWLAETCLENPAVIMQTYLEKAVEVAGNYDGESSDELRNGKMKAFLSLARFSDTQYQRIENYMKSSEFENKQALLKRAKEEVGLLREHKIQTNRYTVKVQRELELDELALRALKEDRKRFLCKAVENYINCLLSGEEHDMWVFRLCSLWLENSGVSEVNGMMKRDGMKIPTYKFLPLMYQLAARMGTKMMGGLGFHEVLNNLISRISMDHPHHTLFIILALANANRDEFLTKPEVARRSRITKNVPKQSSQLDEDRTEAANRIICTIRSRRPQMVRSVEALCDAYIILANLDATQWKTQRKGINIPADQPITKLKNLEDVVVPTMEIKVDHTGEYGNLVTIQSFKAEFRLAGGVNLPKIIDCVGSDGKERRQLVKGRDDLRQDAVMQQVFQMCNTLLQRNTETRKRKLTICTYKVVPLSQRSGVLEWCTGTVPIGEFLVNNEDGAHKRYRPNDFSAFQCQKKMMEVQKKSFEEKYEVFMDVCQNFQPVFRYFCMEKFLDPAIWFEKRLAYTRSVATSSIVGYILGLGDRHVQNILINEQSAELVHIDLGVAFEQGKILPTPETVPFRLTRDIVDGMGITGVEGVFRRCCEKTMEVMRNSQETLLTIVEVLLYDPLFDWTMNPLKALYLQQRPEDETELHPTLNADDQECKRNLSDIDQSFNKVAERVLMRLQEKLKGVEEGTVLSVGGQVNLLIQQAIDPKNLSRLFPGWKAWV
T2 sequence (Q07002 whole entry): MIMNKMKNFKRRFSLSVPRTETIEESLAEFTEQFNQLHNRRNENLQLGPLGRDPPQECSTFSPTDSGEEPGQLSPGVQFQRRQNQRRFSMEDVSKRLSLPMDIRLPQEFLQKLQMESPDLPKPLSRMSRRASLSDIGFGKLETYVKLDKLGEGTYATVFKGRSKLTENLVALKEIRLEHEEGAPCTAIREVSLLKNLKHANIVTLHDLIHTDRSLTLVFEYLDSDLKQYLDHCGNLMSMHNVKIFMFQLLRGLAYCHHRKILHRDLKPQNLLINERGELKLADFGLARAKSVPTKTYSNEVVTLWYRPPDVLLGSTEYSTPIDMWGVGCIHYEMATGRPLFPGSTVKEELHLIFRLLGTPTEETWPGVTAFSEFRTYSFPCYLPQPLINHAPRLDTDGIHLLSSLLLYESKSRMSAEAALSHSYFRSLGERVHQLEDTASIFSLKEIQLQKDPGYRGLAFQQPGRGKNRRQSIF
T2 sequence (Q8ND76 whole entry partner): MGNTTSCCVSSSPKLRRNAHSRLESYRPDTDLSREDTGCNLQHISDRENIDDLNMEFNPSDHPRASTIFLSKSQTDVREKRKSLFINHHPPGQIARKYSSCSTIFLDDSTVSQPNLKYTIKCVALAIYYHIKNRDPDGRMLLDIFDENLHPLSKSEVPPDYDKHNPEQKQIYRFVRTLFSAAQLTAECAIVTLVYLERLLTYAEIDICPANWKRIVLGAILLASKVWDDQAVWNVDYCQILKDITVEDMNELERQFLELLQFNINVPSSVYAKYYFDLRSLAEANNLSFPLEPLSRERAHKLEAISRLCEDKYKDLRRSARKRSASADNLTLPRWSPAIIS
T5 sequence (P48730 whole entry): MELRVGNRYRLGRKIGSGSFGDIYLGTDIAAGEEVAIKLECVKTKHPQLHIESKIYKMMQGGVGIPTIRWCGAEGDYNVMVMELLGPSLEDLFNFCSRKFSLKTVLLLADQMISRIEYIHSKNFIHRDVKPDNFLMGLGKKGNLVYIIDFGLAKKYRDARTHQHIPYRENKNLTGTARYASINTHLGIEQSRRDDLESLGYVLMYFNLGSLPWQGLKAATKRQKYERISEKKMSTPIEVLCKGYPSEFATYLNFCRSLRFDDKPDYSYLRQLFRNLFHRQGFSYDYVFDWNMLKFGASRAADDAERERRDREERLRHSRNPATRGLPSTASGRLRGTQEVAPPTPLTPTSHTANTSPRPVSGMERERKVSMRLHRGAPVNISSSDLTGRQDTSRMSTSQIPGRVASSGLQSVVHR

With `COc1cc(OC)c(Cl)c(-c2ccc3c(NC(=O)c4ccc(N5CCNC(C)(C)C5)cc4)n[nH]c3n2)c1Cl` [3D185] the inhibition at 0.01 µM (PI3 Kinase (p120γ)(h); 10 nM) was 0%, the inhibition at 0.1 µM (PI3 Kinase (p120γ)(h); 100 nM) was 1% and the inhibition at 1 µM (PI3 Kinase (p120γ)(h); 1000 nM) was 3%. The inhibition at 0.01 µM (CDK18/cyclinY(h); 10 nM) was 10%, the inhibition at 0.1 µM (CDK18/cyclinY(h); 100 nM) was 12% and the inhibition at 1 µM (CDK18/cyclinY(h); 1000 nM) was 15%. It also gave an inhibition at 0.01 µM (ATM(h); 10 nM) of -3%, an inhibition at 0.1 µM (ATM(h); 100 nM) of -5% and an inhibition at 1 µM (ATM(h); 1000 nM) of -5%. The inhibition at 0.01 µM (PKAcβ(h); 10 nM) was -6%, the inhibition at 0.1 µM (PKAcβ(h); 100 nM) was -11% and the inhibition at 1 µM (PKAcβ(h); 1000 nM) was -11%. The inhibition at 0.01 µM (CK1δ(h); 10 nM) was -10%, the inhibition at 0.1 µM (CK1δ(h); 100 nM) was 0% and the inhibition at 1 µM (CK1δ(h); 1000 nM) was 6%. It also gave an inhibition at 0.01 µM (cKit(D816V)(h); 10 nM) of -7%, an inhibition at 0.1 µM (cKit(D816V)(h); 100 nM) of 1% and an inhibition at 1 µM (cKit(D816V)(h); 1000 nM) of 3%. The “Inhibition rate (%)” value (CK1(y); 10 nM) was -1%, the “Inhibition rate (%)” value (CK1(y); 100 nM) was 0% and the “Inhibition rate (%)” value (CK1(y); 1000 nM) was 2%. The inhibition at 0.01 µM (TGFBR1(h); 10 nM) was -15%, the inhibition at 0.1 µM (TGFBR1(h); 100 nM) was -19% and the inhibition at 1 µM (TGFBR1(h); 1000 nM) was -17%. The inhibition at 0.01 µM (MST1(h); 10 nM) was 2%, the inhibition at 0.1 µM (MST1(h); 100 nM) was 11% and the inhibition at 1 µM (MST1(h); 1000 nM) was 32%. It also gave an inhibition at 0.01 µM (DYRK2(h); 10 nM) of -1%, an inhibition at 0.1 µM (DYRK2(h); 100 nM) of -1% and an inhibition at 1 µM (DYRK2(h); 1000 nM) of 12%. For the same molecule, the inhibition at 0.01 µM (IRAK1(h); 10 nM) was 4%, the inhibition at 0.1 µM (IRAK1(h); 100 nM) was 0% and the inhibition at 1 µM (IRAK1(h); 1000 nM) was 19%. The inhibition at 0.01 µM (STK25(h); 10 nM) was 7%, the inhibition at 0.1 µM (STK25(h); 100 nM) was 22% and the inhibition at 1 µM (STK25(h); 1000 nM) was 57%.
